In US20140128431A1, “PHARMACEUTICAL COMPOSITION WITH IMPROVED BIOAVAILABILITY, SAFETY AND TOLERABILITY” (priority 2012, published 2014):

Key:
[1] = Aqueous solubility of crystalline Compound A at physiological pHs; type: physicochemical; details: aqueous media at physiological pHs (pH 1.5-8.0), aqueous buffer, crystalline form
Excerpt: (§1) The compound is moderately permeable as determined with the Caco-2 assay value of 4.5×10-6 cm/s. Targeted high doses/frequency of dosing for this series of compounds, led to the categorization of Compound A as BCS class IV compound (low solubility/low permeability).

[2] = Caco-2 assay (permeability); type: in vitro ADME; details: human
Excerpt: as §1

COc1ccc(-c2cc(C(C)(C)C)c(OC)c3cc(-c4ccc(NS(C)(=O)=O)cc4)cnc23)c(=O)[nH]1 [Compound A, N-{4-[6-tert-Butyl-5-methoxy-8-(6-methoxy-2-oxo-1,2-dihydro-pyridin-3-yl)-quinolin-3-yl]-phenyl}-methanesulfonamide]
solubility [1]: < 1 µg/mL | Papp [2]: 4.5 ×10⁻⁶ cm/s
